Molecular target: T1, Muscarinic acetylcholine receptor M4 (Rattus norvegicus, UniProt P08485)
T1 sequence (P08485 whole entry): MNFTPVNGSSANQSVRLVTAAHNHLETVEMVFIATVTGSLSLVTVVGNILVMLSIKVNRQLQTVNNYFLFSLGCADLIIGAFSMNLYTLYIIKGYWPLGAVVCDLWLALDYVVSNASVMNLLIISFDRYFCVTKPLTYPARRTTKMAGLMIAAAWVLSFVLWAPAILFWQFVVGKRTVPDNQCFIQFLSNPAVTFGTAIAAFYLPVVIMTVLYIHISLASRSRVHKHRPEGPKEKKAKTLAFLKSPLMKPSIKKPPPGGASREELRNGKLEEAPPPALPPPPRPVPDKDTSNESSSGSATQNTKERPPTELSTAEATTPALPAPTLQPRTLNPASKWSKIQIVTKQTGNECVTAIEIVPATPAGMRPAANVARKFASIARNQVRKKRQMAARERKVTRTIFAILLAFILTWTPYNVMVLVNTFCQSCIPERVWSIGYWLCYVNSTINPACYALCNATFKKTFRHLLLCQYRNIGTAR
Experiment: rat M4 positive allosteric modulator potency, SAR follow-up, cell-based, analogs, calcium mobilization, Gqi5 (AID 1923)

With `Cc1cc(C)c2c(N)c(C(=O)NCc3ccc4c(c3)OCO4)sc2n1` [3-amino-4,6-dimethyl-N-piperonyl-thieno[2,3-b]pyridine-2-carboxamide] the EC50 was 369 nM.
